Measurements: PMC7186572, “Functional Identification and Structural Analysis of a New Lipoate Protein Ligase in Mycoplasma hyopneumoniae” (Frontiers in Cellular and Infection Microbiology, 2020)

Legend:
Mhp-Lpl [1] = molecular target: T1, Mhp-Lpl (Mesomycoplasma hyopneumoniae, UniProt Q4AA29); assay: X-ray crystallography, […] Å; type: binding; conditions: enzyme reacted with ATP and lipoic acid, then further purified and crystallised; partial occupancy; active site; reaction intermediate; an unidentified AMP-fatty acid co-purifies from E. coli
T1 construct: gene lplA-1; full length, 343 residues, C-terminal His tag, pET32a NdeI/XhoI, synthetic E. coli codon-optimised gene (TGA to TGG), expressed in E. coli BL21(DE3), about 40 kDa
T1 sequence (Q4AA29 1-342 limits assumed): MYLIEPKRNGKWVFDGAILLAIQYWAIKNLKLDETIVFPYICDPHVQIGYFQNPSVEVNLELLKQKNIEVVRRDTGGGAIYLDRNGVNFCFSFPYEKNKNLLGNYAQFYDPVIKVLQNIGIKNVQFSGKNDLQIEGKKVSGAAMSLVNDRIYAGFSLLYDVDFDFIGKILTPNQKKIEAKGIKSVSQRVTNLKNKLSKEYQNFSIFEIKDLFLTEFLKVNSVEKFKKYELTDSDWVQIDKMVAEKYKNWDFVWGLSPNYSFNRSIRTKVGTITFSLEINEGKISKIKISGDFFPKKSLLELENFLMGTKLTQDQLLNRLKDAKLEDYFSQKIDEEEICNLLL

[2] = molecular target: T2, large domain of Mhp-Lpl (ML) (Mesomycoplasma hyopneumoniae, UniProt Q4AA29); assay: western blot of GcvH lipoylation with anti-lipoic acid antibody; type: biochemical; conditions: 1 mM lipoic acid, 5 mM ATP, 1 mM MgCl2, 5 mM DTT, 20 μM apo Mhp H as acceptor, pH 7.0, 37 °C, 4 h
T2 construct: gene lplA-1; large N-terminal domain, residues 1-254, C-terminal His tag, pET32a, expressed in E. coli BL21(DE3)
T2 sequence (Q4AA29 1-256 limits assumed): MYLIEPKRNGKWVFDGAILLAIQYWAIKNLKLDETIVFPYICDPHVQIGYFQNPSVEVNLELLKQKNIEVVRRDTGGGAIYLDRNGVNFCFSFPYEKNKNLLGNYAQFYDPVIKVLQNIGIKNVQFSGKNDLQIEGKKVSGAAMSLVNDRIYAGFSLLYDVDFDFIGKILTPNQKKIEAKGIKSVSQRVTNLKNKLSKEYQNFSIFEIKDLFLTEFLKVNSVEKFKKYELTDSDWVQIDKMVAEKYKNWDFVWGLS

E. coli LplA = molecular target: T3, E. coli LplA (Escherichia coli, UniProt P32099); assay: as above; type: biochemical; conditions: 1 mM lipoic acid, 5 mM ATP, 1 mM MgCl2, 5 mM DTT, 20 μM apo E. coli GcvH as acceptor, pH 7.0, 37 °C, 4 h
T3 construct: full length, C-terminal His tag, pET32a NdeI/XhoI, expressed in E. coli BL21(DE3)
T3 sequence (P32099 2-338): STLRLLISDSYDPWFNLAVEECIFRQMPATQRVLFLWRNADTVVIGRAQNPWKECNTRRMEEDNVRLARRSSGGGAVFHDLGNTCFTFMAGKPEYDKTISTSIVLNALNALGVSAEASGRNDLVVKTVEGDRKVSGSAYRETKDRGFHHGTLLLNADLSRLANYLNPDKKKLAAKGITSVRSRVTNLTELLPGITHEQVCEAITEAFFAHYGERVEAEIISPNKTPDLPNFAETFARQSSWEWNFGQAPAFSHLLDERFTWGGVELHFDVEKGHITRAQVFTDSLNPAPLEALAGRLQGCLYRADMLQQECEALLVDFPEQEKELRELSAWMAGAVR

Mhp-Lpl [3] = molecular target: T1, Mhp-Lpl; assay: as above; type: biochemical; conditions: 1 mM lipoic acid, 5 mM ATP, 1 mM MgCl2, 5 mM DTT, 20 μM apo Mhp H as acceptor, pH 7.0, 37 °C, 4 h

SMILES	X-ray crystallography, 2.45 Å (Mhp-Lpl [1])	western blot of GcvH lipoylation with anti-lipoic acid antibody [2]	western blot of GcvH lipoylation with anti-lipoic acid antibody (E. coli LplA)	western blot of GcvH lipoylation with anti-lipoic acid antibody (Mhp-Lpl [3])
Nc1ncnc2c1ncn2[C@@H]1O[C@H](COP(=O)(O)OC(=O)CCCC[C@@H]2CCSS2)[C@@H](O)[C@H]1O [lipoyl-AMP]	lipoyl-AMP could be modeled into the density, despite its partial occupancy			
O=C(O)CCCC[C@@H]1CCSS1 (racemic) [lipoic acid]		the large domain is able to catalyze Mhp H lipoylation	E. coli LplA could successfully transfer lipoic acid to E. coli GcvH	lipoic acid was successfully transferred to the Mhp H protein by the MHP_RS01680-encoded protein
Nc1ncnc2c1ncn2[C@@H]1O[C@H](COP(=O)(O)OP(=O)(O)OP(=O)(O)O)[C@@H](O)[C@H]1O [ATP]		including activation of lipoic acid with ATP to form lipoyl-AMP		Mhp-Lpl catalyzes the ATP-dependent activation of lipoate to lipoyl-AMP
